Assay [1] deals with K-Ras^G12C : hSOS1 interaction (Homo sapiens, UniProt Q07889). In words: Biochemical assay 1: K-Ras^G12C interaction assay with hSOS1 (HTRF). The format is binding. The following applies: read-out: Assay 1 (KRAS-SOS Interaction) activity expressed as IC50. The protocol: Biochemical assay 1: K-Ras^G12C Interaction Assay with hSOS1
This assay quantifies the equilibrium interaction of human SOS1 with K-Ras^Gl2C. Detection of the interaction is achieved by measuring homogenous time-resolved fluorescence resonance energy transfer (HTRF) from antiGST-Europium (FRET donor) bound to GST-K-Ras^G12C to anti-6His-XL665 bound to His-tagged hSOS1 (FRET-acceptor).
The assay buffer contained 5 mM HEPES pH 7.4 (Applichem), 150 mM NaCl (Sigma), 10 mM EDTA (Promega), 1 mM DTT (Thermofisher), 0.05% BSA Fraction V, pH 7.0, (ICN Biomedicals), 0.0025% (v/v) Igepal (Sigma) and 100 mM KF (FLUKA).
Concentrations of protein batches used were optimized to be within the linear range of the HTRF signal. A Ras working solution was prepared in assay buffer containing typically 10 nM GST-hK-RasG12C and 2 nM antiGST-Eu(K) (Cisbio, France). A SOS working solution was prepared in assay buffer containing typically 20 nM His-hSOS1 and 10 nM anti-6His-XL665 (Cisbio, France). An inhibitor control solution was prepared in assay buffer containing 10 nM anti-6His-XL665 without hSOS1.
(§1) Fifty nl of a 100-fold concentrated solution of the test compound in DMSO were transferred into a black microtiter test plate (384 or 1536, Greiner Bio-One, Germany). For this, either a Hummingbird liquid handler (Digilab, MA, USA) or an Echo acoustic system (Labcyte, CA, USA) was used.
All steps of the assay were performed at 20° C. A volume of 2.5 μl of the Ras working solution was added to all wells of the test plate using a Multidrop dispenser (Thermo Labsystems). After 2 min preincubation, 2.5 μl of the SOS working solution were added to all wells except for those wells at the side of the test plate that were subsequently filled with 2.5 μl of the inhibitor control solution. After 60 min incubation the fluorescence was measured with a Pherastar (BMG, Germany) using the HTRF module (excitation 337 nm, emission 1: 620 nm, emission 2: 665 nm).
(§2) IC50 values were calculated by 4-Parameter fitting using a commercial software package (Genedata Screener, Switzerland).
(In general: TR-FRET usually uses a lanthanide donor and a delayed reading to cut background.)

Assay [2] addresses human SOS1 (nucleotide exchange of K-Ras^G12C) (Homo sapiens, UniProt Q07889). In words: Biochemical assay 2: K-Ras^G12C activation assay by hSOS1 at high GTP concentration (HTRF). As to conditions: high GTP; for IC50: read-out: Assay 2 (KRAS-Activation by SOS high GTP) activity expressed as IC50.
Excerpt: Biochemical Assay 2: K-Ras^G12C Activation Assay by hSOS1 at High GTP Concentration
This assay quantifies human SOS1-mediated nucleotide exchange of K-Ras^G12C preloaded with a fluorescent […] and in presence of an excess of free GTP. Loaded hK-Ras^G12C generates a high HTRF-signal by energy transfer from antiGST-Terbium (FRET donor) bound to K-Ras to the loaded fluorescent GDP analog (FRET-acceptor). SOS1 activity exchanges the fluorescent GDP for non-fluorescent GTP and therefore leads to a reduction of the HTRF signal.
The fluorescent GDP-analog EDA-GDP-Dy647P1 (2′/3′-O-(2-Aminoethyl-carbamoyl)-guanosine-5′-diphosphate labelled with Dy647P1 (Dyomics GmbH, Germany)) was synthesized by Jena Biosciences GmbH (Germany) and supplied as a 1 mM aqueous solution.
Concentrations of protein batches used were optimized to be within the linear range of the HTRF signal.
Preparation of GST-tagged hK-Ras^Gl2C loaded with fluorescent nucleotide was performed as follows: incubation of 11.5 μM hK-Ras^Gl2C with 5-fold excess GDP-Dy647 nucleotide (54 μM) in 500 μl NLS-buffer (RAS activation Kit Jena Bioscience, Kat. #PR-950) for 10 min at 37° C. Addition of 20 μl 1 M MgCl2 (Sigma) to final 40 mM and store on ice. Purification into buffer (10 mM HEPES pH 7.4 (Applichem), 150 mM NaCl (Sigma), 5 mM MgCl2 (Sigma)) by use of a PD-Minitrap desalting column (GE Healthcare). Concentration of 1 ml purified hK-Ras-GDP-Dy647 is approx. 4-5 μM.
(§3) The assay buffer contained 10 mM HEPES pH 7.4 (Applichem), 150 mM NaCl (Sigma), 5 mM MgCl2 (Sigma), 1 mM DTT (Thermofisher), 0.05% BSA Fraction V, pH 7.0, (ICN Biomedicals), 0.0025% (v/v) Igepal (Sigma).
A Ras working solution was prepared in assay buffer containing typically 80 nM loaded GST-hK-RasG12C-EDA-GDP-Dy647P1 and 2 nM antiGST-Tb (Cisbio, France). A hSOS1 working solution was prepared in assay buffer containing typically 8 nM His-hSOS1 and 100 μM GTP (Jena Bioscience, Germany). An inhibitor control solution was prepared in assay buffer containing the same concentration of […].
as §1
All steps of the assay were performed at 20° C. A volume of 2.5 μl of the Ras working solution was added to all wells of the test plate using a Multidrop dispenser (Thermo Labsystems). After 2 min preincubation, 2.5 μl of the hSOS1 working solution were added to all wells except for those wells at the side of the test plate that were subsequently filled with 2.5 μl of the inhibitor control solution. After 20 min incubation the fluorescence was measured with a Pherastar (BMG, Germany) using the HTRF module (excitation 337 nm, emission 1: 620 nm, emission 2: 665 nm).
as §2

The target of assay [3] is human SOS1 (loading of human K-Ras^G12C-GDP with fluorescent GTP-analog) (Homo sapiens, UniProt Q07889). Nature of the assay: Biochemical assay 3: K-Ras^G12C activation assay by hSOS1 (HTRF). As to conditions: no GTP; for IC50: read-out: Assay 3 (KRAS-Activation by SOS no GTP) activity expressed as IC50.
Excerpt: Biochemical assay 3: K-Ras^G12C Activation Assay by hSOS1
K-Ras is a small GTPase that can bind GDP and GTP. The guanine nucleotide exchange factor SOS catalyzes the activation of K-Ras by promoting the exchange of GDP to GTP. SOS binds to K-Ras-GDP thereby opening the GDP-binding pocket to facilitate GDP release. Rebinding of excess nucleotide leads to dissociation of the K-Ras-SOS intermediate complex leaving K-Ras loaded with the nucleotide.
This assay quantifies human SOS1-mediated loading of human K-Ras^G12C-GDP with a fluorescent GTP-analog. Detection of successful loading is achieved by measuring homogenous time-resolved fluorescence resonance energy transfer (HTRF) from antiGST-Terbium (FRET donor) bound to GST-K-RasG12C to the loaded fluorescent GTP analog (FRET-acceptor).
The fluorescent GTP-analog EDA-GTP-Dy647P1 (2′/3′-O-(2-Aminoethyl-carbamoyl)-guanosine-5′-triphosphate labelled with Dy647P1 (Dyomics GmbH, Germany)) was synthesized by Jena Biosciences GmbH (Germany) and supplied as a 1 mM aqueous solution.
as §3
Concentrations of protein batches used were optimized to be within the linear range of the HTRF signal. A Ras working solution was prepared in assay buffer containing typically 100 nM GST-hK-RasG12C and 2 nM antiGST-Tb (Cisbio, France). A hSOS1 working solution was prepared in assay buffer containing typically 20 nM hSOS1 and 200 nM EDA-GTP-Dy647P1. An inhibitor control solution was prepared in assay buffer containing 200 nM EDA-GTP-Dy647P1 without hSOS1.
as §1
All steps of the assay were performed at 20° C. A volume of 2.5 μl of the Ras working solution was added to all wells of the test plate using a Multidrop dispenser (Thermo Labsystems). After 10 min preincubation, 2.5 μl of the hSOS1 working solution were added to all wells except for those wells at the side of the test plate that were subsequently filled with 2.5 μl of the inhibitor control solution. After 30 min incubation the fluorescence was measured with a Pherastar (BMG, Germany) using the HTRF module (excitation 337 nm, emission 1: 620 nm, emission 2: 665 nm).
as §2

The structures appear in SMILES notation.

One may read the IC50 as the concentration that inhibits the measured activity by half. In the case of `COCc1ccccc1-c1ccc([C@H](C)Nc2nc(C)nc3cc(OC)c(OC)cc23)s1` (racemic) [Example 50, 6,7-dimethoxy-N-[1-{5-[2-(methoxymethyl)phenyl]thiophen-2-yl}ethyl]-2-methylquinazolin-4-amine], the results for the concentration for half-maximal inhibition (IC50) in assay [1] and in assay [2] were 9.85 µM and 20 µM, respectively.
For `COc1cccc(-c2ccc([C@H](C)Nc3nc(C)nc4cc(OC)c(OC)cc34)s2)c1` (racemic) [Example 167, 6,7-dimethoxy-N-{1-[5-(3-methoxyphenyl)thiophen-2-yl]ethyl}-2-methylquinazolin-4-amine], in assay [1], the IC50 stood at 16.9 µM.
With `COc1cc2nc(C)nc(N[C@@H](C)c3ccc(-c4ccc5c(c4)OCCO5)s3)c2cc1OC` (racemic) [Example 98, N-{1-[5-(2,3-dihydro-1,4-benzodioxin-6-yl)thiophen-2-yl]ethyl}-6,7-dimethoxy-2-methylquinazolin-4-amine], the IC50 in assay [1] is 16.1 µM.
For `CCCNC(=O)c1ccc(-c2ccc([C@H](C)Nc3nc(C)nc4cc(OC)c(OC)cc34)s2)cc1` (racemic) [Example 141, 4-(5-{1-[(6,7-dimethoxy-2-methylquinazolin-4-yl)amino]ethyl}thiophen-2-yl)-N-propylbenzamide], the half-maximal inhibitory concentration (IC50) in assay [1] worked out at 5.63 µM; in assay [3] it was 11.1 µM.
Turning to `COc1cc2nc(C)nc(N[C@@H](C)c3ccc(-c4ccc(CO)s4)s3)c2cc1OC` (racemic) [Example 52, (5′-{1-[(6,7-dimethoxy-2-methylquinazolin-4-yl)amino]ethyl}-2,2′-bithiophen-5-yl)methanol], the IC50 in assay [1] was 4.29 µM; in assay [2], 5.46 µM.
For the molecule `COc1cc2nc(C)nc(N[C@@H](C)c3ccc(-c4ccc(C(=O)N(C)C)cc4)s3)c2cc1OC` (racemic) [Example 176, 4-(5-{1-[(6,7-dimethoxy-2-methylquinazolin-4-yl)amino]ethyl}thiophen-2-yl)-N,N-dimethylbenzamide], the concentration for half-maximal inhibition (IC50) in assay [1] stood at 3.49 µM; in assay [2], 5.82 µM.
With `COc1cc2nc(C)nc(N[C@@H](C)c3ccc(-c4cccc(NS(C)(=O)=O)c4)s3)c2cc1OC` (racemic) [Example 165, N-[3-(5-{1-[(6,7-dimethoxy-2-methylquinazolin-4-yl)amino]ethyl}thiophen-2-yl)phenyl]methanesulfonamide], the figures for the half-inhibitory concentration (IC50) in assay [1] and in assay [2] were 10.6 µM and 16.4 µM, respectively.
In the case of `COc1cc2nc(C)nc(N[C@@H](C)c3ccc(-c4cccc(C(=O)N(C)C)c4)s3)c2cc1OC` (racemic) [Example 51, 3-(5-{1-[(6,7-dimethoxy-2-methylquinazolin-4-yl)amino]ethyl}thiophen-2-yl)-N,N-dimethylbenzamide], the IC50 was determined as 5.63 µM in assay [1] and 5.9 µM in assay [2].
Consider `COc1cc2nc(C)nc(N[C@@H](C)c3ccc(-c4cccc(OC(F)(F)F)c4)s3)c2cc1OC` (racemic) [Example 151, 6,7-dimethoxy-2-methyl-N-[1-{5-[3-(trifluoromethoxy)phenyl]thiophen-2-yl}ethyl]quinazolin-4-amine], for which the concentration for half-maximal inhibition (IC50) in assay [1] was determined as 10.4 µM; in assay [3], 13.3 µM.
Turning to `COc1cc2nc(C)nc(N[C@@H](C)c3ccc(-c4cccc(C(F)(F)F)c4)s3)c2cc1OC` (racemic) [Example 168, 6,7-dimethoxy-2-methyl-N-[1-{5-[3-(trifluoromethyl)phenyl]thiophen-2-yl}ethyl]quinazolin-4-amine], the concentration for half-maximal inhibition (IC50) in assay [1] was found to be 12.2 µM.
One may read the inhibition as the drop in the measured response relative to a control, in per cent. For the molecule `COc1cc2nc(C)nc(N[C@@H](C)c3ccc(-c4ccc5c(c4)OCO5)s3)c2cc1OC` (stereo in doubt) [Example 163, N-{1-[5-(1,3-benzodioxol-5-yl)thiophen-2-yl]ethyl}-6,7-dimethoxy-2-methylquinazolin-4-amine], the inhibition at 20 µM in assay [2] (read-out: Assay 2 (KRAS-Activation by SOS high GTP) activity expressed as % inhibition at 20 μM, at 20 μM) is 42%; in assay [3] (read-out: Assay 3 (KRAS-Activation by SOS no GTP) activity expressed as % inhibition at 20 μM, at 20 μM), 35%.
`COc1cc2nc(C)nc(N[C@@H](C)c3ccc(-c4ccc5c(ccn5C)c4)s3)c2cc1OC` (racemic) [Example 49, 6,7-dimethoxy-2-methyl-N-{1-[5-{1-methyl-1H-indol-5-yl)thiophen-2-yl]ethyl}quinazolin-4-amine]: the IC50 in assay [1] was 19.6 µM.
The same measure, in the same setting: to `COc1cc2nc(C)nc(N[C@@H](C)c3ccc(-c4ccc5c(c4)OCO5)s3)c2cc1OC` (racemic) [Example 163, N-{1-[5-(1,3-benzodioxol-5-yl)thiophen-2-yl]ethyl}-6,7-dimethoxy-2-methylquinazolin-4-amine] belongs 13.6 µM.

Values taken from US20240083857A1, “2-Methyl-Quinazolines” (Bayer Pharma Aktiengesellschaft, priority 2017, published 2024).
